# Tests used:
# [1] = tested on: Clostridioides difficile; assay: Selectivity ratio of MBC for antibacterial activity against Clostridioides difficile NR-32904 to MIC for antibacterial activity against Clostridioides difficile NR-32904; assay type: functional
# [2] = tested on: Staphylococcus aureus; assay: Antibacterial activity against Staphylococcus aureus Newman D2C NCTC 10833 assessed as reduction in microbial growth incubated for 16 hrs by serial dilution method; assay type: functional
# [3] = tested on: Clostridioides difficile; assay: Antibacterial activity against Clostridioides difficile NR-49279 assessed as reduction in microbial growth incubated for 48 hrs by broth microdilution method; assay type: functional
# [4] = tested on: Clostridioides difficile; assay: Antibacterial activity against Clostridioides difficile NR-13427 assessed as reduction in microbial growth incubated for 48 hrs by broth microdilution method; assay type: functional
# [5] = molecular target: UDP-N-acetylglucosamine 1-carboxyvinyltransferase (Escherichia coli K-12, UniProt P0A749); assay: Inhibition of Escherichia coli K12 His-tagged MurA expressed in Escherichia coli BL21 cells using UNAG as substrate pre incubated for 15 mins followed by substrate addition and measured after 15 mins by microplate reader analysis
# [6] = tested on: Clostridioides difficile; assay: Antibacterial activity against Clostridioides difficile NR-32903 assessed as reduction in microbial growth incubated for 48 hrs by broth microdilution method; assay type: functional
# [7] = tested on: Bifidobacterium breve; assay: Antibacterial activity against Bifidobacterium breve HM1120 assessed as reduction in microbial growth incubated for 48 hrs by broth microdilution method; assay type: functional
# [8] = tested on: Clostridioides difficile; assay: Selectivity ratio of MBC for antibacterial activity against Clostridioides difficile NR-32895 to MIC for antibacterial activity against Clostridioides difficile NR-32895; assay type: functional
# [9] = tested on: Clostridioides difficile; assay: Antibacterial activity against Clostridioides difficile NR-32889 assessed as reduction in microbial growth incubated for 48 hrs by broth microdilution method; assay type: functional
# [10] = tested on: Bacteroides fragilis; assay: Antibacterial activity against Bacteroides fragilis HM 20 assessed as reduction in microbial growth incubated for 48 hrs by broth microdilution method; assay type: functional
# [11] = tested on: Clostridioides difficile; assay: Antibacterial activity against Clostridioides difficile ATCC BAA1870 assessed as reduction in microbial growth incubated for 48 hrs by broth microdilution method; assay type: functional
# [12] = tested on: Clostridioides difficile; assay: Antibacterial activity against Clostridioides difficile NR-49294 assessed as reduction in microbial growth incubated for 48 hrs by broth microdilution method; assay type: functional
# [13] = tested on: Escherichia coli; assay: Antibacterial activity against Escherichia coli harboring tolC deletion mutant assessed as reduction in microbial growth incubated for 16 hrs by serial dilution method; assay type: functional
# [14] = tested on: Bacteroides fragilis; assay: Antibacterial activity against Bacteroides fragilis HM 709 assessed as reduction in microbial growth incubated for 48 hrs by broth microdilution method; assay type: functional
# [15] = tested on: Clostridioides difficile; assay: Selectivity ratio of MBC for antibacterial activity against Clostridioides difficile NR-49284 to MIC for antibacterial activity against Clostridioides difficile NR-49284; assay type: functional
# [16] = tested on: Clostridioides difficile; assay: Selectivity ratio of MBC for antibacterial activity against Clostridioides difficile ATCC BAA1870 to MIC for antibacterial activity against Clostridioides difficile ATCC BAA1870; assay type: functional
# [17] = tested on: Clostridioides difficile; assay: Antibacterial activity against Clostridioides difficile NR-49285 assessed as reduction in microbial growth incubated for 48 hrs by broth microdilution method; assay type: functional
# [18] = tested on: Clostridioides difficile; assay: Antibacterial activity against Clostridioides difficile ATCC 43255 assessed as reduction in microbial growth incubated for 48 hrs by broth microdilution method; assay type: functional
# [19] = tested on: Bacteroides fragilis; assay: Antibacterial activity against Bacteroides fragilis HM 718 assessed as reduction in microbial growth incubated for 48 hrs by broth microdilution method; assay type: functional
# [20] = tested on: Lactobacillus gasseri; assay: Antibacterial activity against Lactobacillus gasseri HM 403 assessed as reduction in microbial growth incubated for 48 hrs by broth microdilution method; assay type: functional
# [21] = tested on: Bifidobacterium angulatum; assay: Antibacterial activity against Bifidobacterium angulatum HM 1189 assessed as reduction in microbial growth incubated for 48 hrs by broth microdilution method; assay type: functional
# [22] = molecular target: UDP-N-acetylglucosamine 1-carboxyvinyltransferase (Escherichia coli K-12) (UniProt P0A749); assay: Inhibition of Escherichia coli K12 His-tagged MurA expressed in Escherichia coli BL21 cells at 50 uM using UNAG as substrate pre incubated for 15 mins followed by substrate addition and measured after 15 mins by microplate reader analysis relative to control; settings: time 30.0 min
# [23] = tested on: Clostridioides difficile; assay: Antibacterial activity against Clostridioides difficile HM-88 assessed as reduction in microbial growth incubated for 48 hrs by broth microdilution method; assay type: functional
# [24] = tested on: Clostridioides difficile; assay: Antibacterial activity against Clostridioides difficile NR-49284 assessed as reduction in microbial growth incubated for 48 hrs by broth microdilution method; assay type: functional
# [25] = tested on: Clostridioides difficile; assay: Antibacterial activity against Clostridioides difficile NR-49278 assessed as reduction in microbial growth incubated for 48 hrs by broth microdilution method; assay type: functional
# [26] = tested on: Clostridioides difficile; assay: Bactericidal activity against Clostridioides difficile ATCC BAA1870 assessed as reduction in microbial growth by broth microdilution method; assay type: functional
# [27] = tested on: Clostridioides difficile; assay: Bactericidal activity against Clostridioides difficile NR-32904 assessed as reduction in microbial growth by broth microdilution method; assay type: functional
# [28] = tested on: Staphylococcus aureus; assay: Antibacterial activity against methicillin resistant Staphylococcus aureus NRS119 assessed as reduction in microbial growth by CLSI based broth microdilution method; assay type: functional
# [29] = tested on: Lactobacillus crispatus; assay: Antibacterial activity against Lactobacillus crispatus HM 103 assessed as reduction in microbial growth incubated for 48 hrs by broth microdilution method; assay type: functional
# [30] = tested on: Lactobacillus crispatus; assay: Antibacterial activity against Lactobacillus crispatus HM 420 assessed as reduction in microbial growth incubated for 48 hrs by broth microdilution method; assay type: functional
# [31] = tested on: Bifidobacterium breve; assay: Antibacterial activity against Bifidobacterium breve HM 412 assessed as reduction in microbial growth incubated for 48 hrs by broth microdilution method; assay type: functional
# [32] = tested on: Clostridioides difficile; assay: Selectivity ratio of MBC for antibacterial activity against Clostridioides difficile ATCC 43255 to MIC for antibacterial activity against Clostridioides difficile […]; assay type: functional
# [33] = tested on: Lactobacillus gasseri; assay: Antibacterial activity against Lactobacillus gasseri HM 407 assessed as reduction in microbial growth incubated for 48 hrs by broth microdilution method; assay type: functional
# [34] = tested on: Bifidobacterium longum; assay: Antibacterial activity against Bifidobacterium longum HM 846 assessed as reduction in microbial growth incubated for 48 hrs by broth microdilution method; assay type: functional
# [35] = tested on: Clostridioides difficile; assay: Bactericidal activity against Clostridioides difficile ATCC 43255 assessed as reduction in microbial growth by broth microdilution method; assay type: functional
# [36] = tested on: Enterococcus faecalis; assay: Antibacterial activity against Enterococcus faecalis ATCC 51299 assessed as reduction in microbial growth by CLSI based broth microdilution method; assay type: functional
# [37] = tested on: Bacteroides fragilis; assay: Antibacterial activity against Bacteroides fragilis HM 719 assessed as reduction in microbial growth incubated for 48 hrs by broth microdilution method; assay type: functional
# [38] = tested on: Clostridioides difficile; assay: Antibacterial activity against Clostridioides difficile NR-13436 assessed as reduction in microbial growth incubated for 48 hrs by broth microdilution method; assay type: functional
# [39] = tested on: Clostridioides difficile; assay: Antibacterial activity against Clostridioides difficile NR-49287 assessed as reduction in microbial growth incubated for 48 hrs by broth microdilution method; assay type: functional
# [40] = Stability of compound in Staphylococcus aureus Newman cell lysate at 10 uM incubated for 24 hrs at 37 degC by UHPLC-MS/MS analysis; assay type: ADME, subcellular
# [41] = tested on: Streptococcus pneumoniae; assay: Antibacterial activity against Streptococcus pneumoniae ATCC 700677 assessed as reduction in microbial growth by CLSI based broth microdilution method; assay type: functional
# [42] = tested on: Clostridioides difficile; assay: Bactericidal activity against Clostridioides difficile NR-49284 assessed as reduction in microbial growth by broth microdilution method; assay type: functional
# Sequence of UDP-N-acetylglucosamine 1-carboxyvinyltransferase (P0A749 whole entry): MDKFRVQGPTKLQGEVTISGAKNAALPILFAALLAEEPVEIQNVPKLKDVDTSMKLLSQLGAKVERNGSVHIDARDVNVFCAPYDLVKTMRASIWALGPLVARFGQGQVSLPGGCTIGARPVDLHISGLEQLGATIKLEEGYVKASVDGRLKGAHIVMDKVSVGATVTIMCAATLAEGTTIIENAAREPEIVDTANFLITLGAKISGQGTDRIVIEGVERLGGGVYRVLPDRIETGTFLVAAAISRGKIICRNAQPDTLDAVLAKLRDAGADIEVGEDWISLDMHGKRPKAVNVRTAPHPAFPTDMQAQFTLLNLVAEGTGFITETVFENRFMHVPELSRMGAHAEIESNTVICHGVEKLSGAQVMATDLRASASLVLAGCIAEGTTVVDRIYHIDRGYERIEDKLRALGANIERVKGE
# Sequence of UDP-N-acetylglucosamine 1-carboxyvinyltransferase (Escherichia coli K-12) (P0A749 whole entry): as above
compound,measurement,setting,value
O=C(Nc1ncc([N+](=O)[O-])s1)C1CN(c2ccc(Cl)cc2)N(c2ccc(Cl)cc2)C1=O (centres undefined),Ratio,[1],1
same,MIC,[2],10 µM
same,MIC,[3],0.5 µg/mL
same,MIC,[4],0.5 µg/mL
same,IC50,[5],10.2 µM
same,MIC,[6],0.5 µg/mL
same,MIC,[7],> 64 µg/mL
same,Ratio,[8],1
same,MIC,[9],0.25 µg/mL
same,MIC,[10],8 µg/mL
same,MIC,[11],0.5 µg/mL
same,MIC,[12],0.5 µg/mL
same,MIC,[13],> 40 µM
same,MIC,[14],4 µg/mL
same,Ratio,[15],1
same,Ratio,[16],1
same,MIC,[17],1 µg/mL
same,MIC,[18],0.25 µg/mL
same,MIC,[19],8 µg/mL
same,MIC,[20],> 64 µg/mL
same,MIC,[21],> 64 µg/mL
same,inhibition,[22],70.2%
same,MIC,[23],0.5 µg/mL
same,MIC,[24],0.5 µg/mL
same,MIC,[25],0.5 µg/mL
same,MBC,[26],0.5 µg/mL
same,MBC,[27],1 µg/mL
same,MIC,[28],64 µg/mL
same,MIC,[29],> 64 µg/mL
same,MIC,[30],> 64 µg/mL
same,MIC,[31],> 64 µg/mL
same,Ratio,[32],1
same,MIC,[33],> 64 µg/mL
same,MIC,[34],32 µg/mL
same,MBC,[35],0.5 µg/mL
same,MIC,[36],> 64 µg/mL
same,MIC,[37],4 µg/mL
same,MIC,[38],1 µg/mL
same,MIC,[39],0.5 µg/mL
same,Stability,[40],Stable
same,MIC,[41],64 µg/mL
same,MBC,[42],0.5 µg/mL
O=C(Nc1ncc([N+](=O)[O-])s1)C1CN(c2cccc(Cl)c2)N(c2cccc(Cl)c2)C1=O (centres undefined),Ratio,[1],1
same,MIC,[2],10 µM
same,MIC,[3],0.25 µg/mL
same,MIC,[4],0.5 µg/mL
same,IC50,[5],9.8 µM
same,MIC,[6],0.5 µg/mL
same,MIC,[7],64 µg/mL
same,Ratio,[8],1
same,MIC,[9],0.5 µg/mL
same,MIC,[10],4 µg/mL
same,MIC,[11],0.25 µg/mL
same,MIC,[12],0.5 µg/mL
same,MIC,[13],> 40 µM
same,MIC,[14],4 µg/mL
same,Ratio,[15],1
same,Ratio,[16],1
same,MIC,[17],0.5 µg/mL
same,MIC,[18],0.125 µg/mL
same,MIC,[19],8 µg/mL
same,MIC,[20],> 64 µg/mL
same,MIC,[21],32 µg/mL
same,inhibition,[22],67.6%
same,MIC,[23],0.5 µg/mL
same,MIC,[24],0.5 µg/mL
same,MIC,[25],0.5 µg/mL
same,MBC,[26],0.25 µg/mL
same,MBC,[27],1 µg/mL
same,MIC,[28],1 µg/mL
same,MIC,[29],> 64 µg/mL
same,MIC,[30],> 64 µg/mL
same,MIC,[31],64 µg/mL
same,Ratio,[32],1
same,MIC,[33],> 64 µg/mL
same,MIC,[34],16 µg/mL
same,MBC,[35],0.25 µg/mL
same,MIC,[36],> 64 µg/mL
same,MIC,[37],8 µg/mL
same,MIC,[38],0.5 µg/mL
same,MIC,[39],0.5 µg/mL
same,Stability,[40],Stable
same,MIC,[41],4 µg/mL
same,MBC,[42],0.5 µg/mL
